Experimental data as given in patent US20240090503A1, “FUNGICIDAL OXADIAZOLES AND THEIR MIXTURES” (FMC CORPORATION, priority 2020, published 2024).

Legend:
[1] = tested on: Puccinia recondita f. sp. tritici (the causal agent of wheat leaf rust); experiment: Test C: preventive spray on wheat seedlings, wheat leaf rust, visual disease rating; type: in vivo; settings: wheat seedlings, 100 = 100% disease control, 0 = no control
How it was run: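 Wheat seedlings sprayed to run-off with compound in acetone/water (50/50) with 250 ppm PEG400, then inoculated with spores the following day. After 24 h saturated humidity at 20° C. and 6 days in growth chamber at 20° C., disease rated visually as % control relative to untreated controls.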

[2] = tested on: Phakopsora pachyrhizi (the causal agent of Asian soybean rust); experiment: Test A: preventive spray on soybean seedlings, Asian soybean rust, visual disease rating; type: in vivo; settings: soybean seedlings, 100 = 100% disease control, 0 = no control
How it was run: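 Preventive test: soybean seedlings received a run-off spray of compound suspended at the set ppm in 50/50 acetone/water plus 250 ppm PEG400, and one day later a P. pachyrhizi spore inoculum. Visual scoring (0 none to 100 full disease control) followed 24 h saturated incubation and 8 days' growth chamber, both at 22° C.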

| Structure (SMILES) | Test C disease control rating ([1]; 10 ppm test suspension) [%] | Test A disease control rating ([2]; 10 ppm test suspension) [%] | Test C disease control rating ([1]; 50 ppm test suspension) [%] | Test A disease control rating ([2]; 50 ppm test suspension) [%] |
| --- | --- | --- | --- | --- |
| CCON=Cc1cnn(Cc2ccc(-c3noc(C(F)(F)F)n3)cc2)c1 [compound 384] | 100 | 100 | – | – |
| CCCON=Cc1cnn(Cc2ccc(-c3noc(C(F)(F)F)n3)cc2)c1 [compound 385] | 100 | 100 | – | – |
| C=CCON=Cc1cnn(Cc2ccc(-c3noc(C(F)(F)F)n3)cc2)c1 [compound 386] | 100 | 100 | – | – |
| C#CCON=Cc1cnn(Cc2ccc(-c3noc(C(F)(F)F)n3)cc2)c1 [compound 387] | 99 | 100 | – | – |
| CC(C)ON=Cc1cnn(Cc2ccc(-c3noc(C(F)(F)F)n3)cc2)c1 [compound 388] | 100 | 100 | – | – |
| CC(=O)NN=Cc1cnn(Cc2ccc(-c3noc(C(F)(F)F)n3)cc2)c1 [compound 389] | 100 | 100 | – | – |
| CS(=O)(=O)CCOC(=O)c1cnn(Cc2ccc(-c3noc(C(F)(F)F)n3)cc2)c1 [compound 390] | 100 | 100 | – | – |
| CCOC(CC(=O)c1cnn(Cc2ccc(-c3noc(C(F)(F)F)n3)cc2)c1)OCC [compound 391] | 100 | 100 | – | – |
| O=C(OCC(F)F)c1cnn(Cc2ccc(-c3noc(C(F)(F)F)n3)cc2)c1 [compound 392] | 100 | 100 | – | – |
| CN(C)C(=O)c1cnn(CCCc2ccc(-c3noc(C(F)(F)F)n3)cc2)c1 [compound 406] | 93 | 100 | – | – |
| Nc1ncnc2c1cnn2Cc1ccc(-c2noc(C(F)(F)F)n2)cc1 [compound 407] | 100 | 100 | – | – |
| FC(F)(F)c1nc(-c2ccc(Cn3ncc4ncccc43)cc2)no1 [compound 408] | 100 | 100 | – | – |
| FC(F)(F)c1nc(-c2ccc(Cn3cc4ncccc4n3)cc2)no1 [compound 409] | 100 | 100 | – | – |
| CCCCOC(=O)c1cnn(Cc2ccc(-c3noc(C(F)(F)F)n3)cc2)c1 [compound 410] | 100 | 100 | – | – |
| O=C(OCC1CC1)c1cnn(Cc2ccc(-c3noc(C(F)(F)F)n3)cc2)c1 [compound 411] | 100 | 100 | – | – |
| O=C(OCc1ccccc1)c1cnn(Cc2ccc(-c3noc(C(F)(F)F)n3)cc2)c1 [compound 412] | 100 | 100 | – | – |
| FC(F)(F)c1nc(-c2ccc(Cn3ncc4cc(Br)cnc43)cc2)no1 [compound 413] | 68 | 100 | – | – |
| FC(F)(F)c1nc(-c2ccc(Cn3cc4cc(Br)cnc4n3)cc2)no1 [compound 414] | 100 | 100 | – | – |
| CNC(=O)c1cnn(CCCc2ccc(-c3noc(C(F)(F)F)n3)cc2)c1 [compound 415] | 96 | 100 | – | – |

| Structure (SMILES) | Test C disease control rating ([1]; 10 ppm test suspension) [%] | Test A disease control rating ([2]; 10 ppm test suspension) [%] | Test C disease control rating ([1]; 50 ppm test suspension) [%] | Test A disease control rating ([2]; 50 ppm test suspension) [%] |
| --- | --- | --- | --- | --- |
| CCCOC(=O)c1cnn(Cc2ccc3cc(-c4noc(C(F)(F)F)n4)ccc3c2)c1 [compound 416] | – | – | 0 | 77 |
| N#Cc1cccn(Cc2ccc(-c3noc(C(F)(F)F)n3)cc2)c1=O [compound 417] | 100 | 100 | – | – |
| CCOC(=O)c1cncn(Cc2ccc(-c3noc(C(F)(F)F)n3)cc2)c1=O [compound 418] | 99 | 100 | – | – |
| CCOC(=O)c1cn(Cc2ccc(-c3noc(C(F)(F)F)n3)cc2)c(=O)cn1 [compound 419] | 99 | 96 | – | – |
| COC(=O)c1ccc(=O)n(Cc2ccc(-c3noc(C(F)(F)F)n3)cc2)c1 [compound 420] | 100 | 100 | – | – |
| COc1ccn(Cc2ccc(-c3noc(C(F)(F)F)n3)cc2)c(=O)c1 [compound 421] | 100 | 100 | – | – |
| COC(=O)c1cccn(Cc2ccc(-c3noc(C(F)(F)F)n3)cc2)c1=O [compound 422] | 93 | 90 | – | – |
| COC(=O)c1nccn(Cc2ccc(-c3noc(C(F)(F)F)n3)cc2)c1=O [compound 423] | 80 | 86 | – | – |
| CCOC(=O)c1cnn(Cc2ccc(-c3noc(C(F)(F)F)n3)cn2)c1 [compound 424] | 96 | 100 | – | – |
| COC(=O)c1cnn(CCCc2ccc(-c3noc(C(F)(F)F)n3)cc2)c1 [compound 427] | – | – | 67 | 100 |
| CCOC(=O)c1cnn(CCCc2ccc(-c3noc(C(F)(F)F)n3)cc2)c1 [compound 428] | – | – | 100 | 100 |
| C#CCNC(=O)C1=NOC(Cc2ccc(-c3noc(C(F)(F)F)n3)s2)C1 (centres unmarked) [compound 429] | – | – | 100 | 100 |
| CCN(CC)C(=O)C1=NOC(Cc2ccc(-c3noc(C(F)(F)F)n3)s2)C1 (centres unmarked) [compound 430] | – | – | 100 | 100 |
| CCOC(=O)C1(Cc2ccc(-c3noc(C(F)(F)F)n3)cc2)CCNC1=O (centres unmarked) [compound 431] | – | – | 98 | 99 |
| CCOC(=O)C1(Cc2ccc(-c3noc(C(F)(F)F)n3)cc2)CCCNC1=O (centres unmarked) [compound 432] | – | – | 92 | 100 |
| FC(F)(F)c1nc(-c2ccc(Cn3cc4cnc(Cl)nc4n3)cc2)no1 [compound 433] | 99 | 100 | – | – |
| CSCC(=O)COC(=O)c1cnn(Cc2ccc(-c3noc(C(F)(F)F)n3)cc2)c1 [compound 434] | 98 | 100 | – | – |
| N#Cc1cnn(CCc2ccc(-c3noc(C(F)(F)F)n3)cc2)c1 [compound 435] | 74 | 100 | – | – |
